From PubChem BioAssay AID1845207 (Molecular Pharmacology Branch, DTP, NCI, 2023)
“And” between values parts separate entries of the source, which are not always exact repeats. Identical values can stand only once. The source made the active and inactive calls. Rule for the calls: active = viability on the fitted dose curve at most 10% of control; inactive = the rest.

Test system: NCI-H1876 tumor spheroid viability
Test: Anticancer human tumor NCI-H1876 cell line growth inhibition;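 note: spheroids exposed to compounds for seven days before the viability read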;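 for viability, T/C: percent of DMSO vehicle control viability so 100% = vehicle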
Conditions: spheroids with HUVEC and MSC; for viability, T/C: stronger effect = lower value
Outline: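 Complex spheroids of malignant cells with endothelial cells and mesenchymal stem cells; agents alone or combined, from near clinical Cmax (or 10 microM if unknown) down in half-log steps, 0.25% DMSO final.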

[1] = curve of first compound, second compound 0.003 µM
[2] = second compound 0.003 µM, first compound 0.0316 µM
[3] = second compound 0.003 µM, first compound 0.1 µM
[4] = second compound 0.003 µM, first compound 0.316 µM
[5] = second compound 0.003 µM, first compound 1 µM
[6] = second compound 0.003 µM, first compound 3.16 µM
[7] = second compound 0.003 µM, first compound 10 µM

In the case of [2H]c1nc(C)nc([2H])c1-c1cc(NC[C@@H](C)c2cccc3c(C(=O)NC)ccnc23)ncn1 + COc1cc2c(cc1O)CCNC21CSC2c3c(OC(C)=O)c(C)c4c(c3C(COC1=O)N1C(O)C3Cc5cc(C)c(OC)c(O)c5C(C21)N3C)OCO4, the IC50 (curve of first compound, second compound 30 pM) is reported as over 10000 nM, the IC50 (curve of first compound, second compound 94.9 pM) is reported as over 10000 nM and the IC50 (curve of first compound, second compound 0.0003 µM) is reported as under 31.6 nM. It also gave an IC50 (curve of first compound, second compound 0.000949 µM) of under 31.6 nM, an IC50 [1] of under 31.6 nM and a viability, T/C (second compound 30 pM, first compound 0.0316 µM) of 102%. For the same compound, the viability, T/C (second compound 30 pM, first compound 0.1 µM) was 101%, the viability, T/C (second compound 30 pM, first compound 0.316 µM) was 101% and the viability, T/C (second compound 30 pM, first compound 1 µM) was 101%. For the same compound, the viability, T/C (second compound 30 pM, first compound 3.16 µM) was 100%, the viability, T/C (second compound 30 pM, first compound 10 µM) was 98% and the viability, T/C (second compound 94.9 pM, first compound 0.0316 µM) was 90.8%. It also gave a viability, T/C (second compound 94.9 pM, first compound 0.1 µM) of 94.2%, a viability, T/C (second compound 94.9 pM, first compound 0.316 µM) of 94.6% and a viability, T/C (second compound 94.9 pM, first compound 1 µM) of 94.5%. The viability, T/C (second compound 94.9 pM, first compound 3.16 µM) was 93.9%, the viability, T/C (second compound 94.9 pM, first compound 10 µM) was 85.7% and the viability, T/C (second compound 0.0003 µM, first compound 0.0316 µM) was 31%. It also gave a viability, T/C (second compound 0.0003 µM, first compound 0.1 µM) of 32.2%, a viability, T/C (second compound 0.0003 µM, first compound 0.316 µM) of 35.5% and a viability, T/C (second compound 0.0003 µM, first compound 1 µM) of 30%. For the same compound, the viability, T/C (second compound 0.0003 µM, first compound 3.16 µM) was 31.6%, the viability, T/C (second compound 0.0003 µM, first compound 10 µM) was 21.6% and the viability, T/C (second compound 0.000949 µM, first compound 0.0316 µM) was 3.38%. For the same compound, the viability, T/C (second compound 0.000949 µM, first compound 0.1 µM) was 2.4%, the viability, T/C (second compound 0.000949 µM, first compound 0.316 µM) was 2.32% and the viability, T/C (second compound 0.000949 µM, first compound 1 µM) was 2.39%. The viability, T/C (second compound 0.000949 µM, first compound 3.16 µM) was 2.46%, the viability, T/C (second compound 0.000949 µM, first compound 10 µM) was 3.2% and the viability, T/C [2] was 0.5%. It also gave a viability, T/C [3] of 0.64%, a viability, T/C [4] of 0.5% and a viability, T/C [5] of 0.66%. The viability, T/C [6] was 0.74% and the viability, T/C [7] was 0.7%.

For COc1ccc([C@@H](O)c2cc(-c3ncnc4cc(N5CCOCC5)ccc34)c(F)cc2Cl)nn1, the viability, T/C (compound 0.0316 µM) was 105% and 98% and 103%, the viability, T/C (compound 0.1 µM) was 104% (2×) and 95.2% and the viability, T/C (compound 0.316 µM) was 102% and 74.6% and 96.1%. For the same compound, the viability, T/C (compound 1 µM) was 97.6% and 98%, the outcome (compound 1 µM) was “inactive” and the viability, T/C (compound 3.16 µM) was 81.2% and 26.2% and 77.6%. For the same compound, the IC50 (curve of compound) was 5500 nM and 1120 nM and 6510 nM.

Work on [2H]c1nc(C)nc([2H])c1-c1cc(NC[C@@H](C)c2cccc3c(C(=O)NC)ccnc23)ncn1 + CC[C@@]1(O)C(=O)OCc2c1cc1n(c2=O)Cc2cc3c(CN(C)C)c(O)ccc3nc2-1 yielded an IC50 [1] of over 10000 nM, an IC50 (curve of first compound, second compound 0.00949 µM) of under 31.6 nM and an IC50 (curve of first compound, second compound 0.03 µM) of under 31.6 nM. For the same compound, the IC50 (curve of first compound, second compound 0.0949 µM) was under 31.6 nM, the IC50 (curve of first compound, second compound 0.3 µM) was under 31.6 nM and the viability, T/C [2] was 93.3%. The viability, T/C [3] was 89.6%, the viability, T/C [4] was 93.9% and the viability, T/C [5] was 87.1%. For the same compound, the viability, T/C [6] was 85.1%, the viability, T/C [7] was 78.5% and the viability, T/C (second compound 0.00949 µM, first compound 0.0316 µM) was 25.2%. It also gave a viability, T/C (second compound 0.00949 µM, first compound 0.1 µM) of 22.2%, a viability, T/C (second compound 0.00949 µM, first compound 0.316 µM) of 24% and a viability, T/C (second compound 0.00949 µM, first compound 1 µM) of 21.4%. The viability, T/C (second compound 0.00949 µM, first compound 3.16 µM) was 19.7%, the viability, T/C (second compound 0.00949 µM, first compound 10 µM) was 17.1% and the viability, T/C (second compound 0.03 µM, first compound 0.0316 µM) was 3.65%. The viability, T/C (second compound 0.03 µM, first compound 0.1 µM) was 4.05%, the viability, T/C (second compound 0.03 µM, first compound 0.316 µM) was 3.87% and the viability, T/C (second compound 0.03 µM, first compound 1 µM) was 4.16%. For the same compound, the viability, T/C (second compound 0.03 µM, first compound 3.16 µM) was 4.24%, the viability, T/C (second compound 0.03 µM, first compound 10 µM) was 4.06% and the viability, T/C (second compound 0.0949 µM, first compound 0.0316 µM) was 2.96%. It also gave a viability, T/C (second compound 0.0949 µM, first compound 0.1 µM) of 2.98%, a viability, T/C (second compound 0.0949 µM, first compound 0.316 µM) of 2.95% and a viability, T/C (second compound 0.0949 µM, first compound 1 µM) of 3.01%. The viability, T/C (second compound 0.0949 µM, first compound 3.16 µM) was 2.71%, the viability, T/C (second compound 0.0949 µM, first compound 10 µM) was 3.38% and the viability, T/C (second compound 0.3 µM, first compound 0.0316 µM) was 2.42%. The viability, T/C (second compound 0.3 µM, first compound 0.1 µM) was 2.48%, the viability, T/C (second compound 0.3 µM, first compound 0.316 µM) was 2.48% and the viability, T/C (second compound 0.3 µM, first compound 1 µM) was 2.74%. The viability, T/C (second compound 0.3 µM, first compound 3.16 µM) was 2.32% and the viability, T/C (second compound 0.3 µM, first compound 10 µM) was 2.21%.

With CC[C@@]1(O)C(=O)OCc2c1cc1n(c2=O)Cc2cc3c(CN(C)C)c(O)ccc3nc2-1 the viability, T/C (compound 0.003 µM) was 84.5% [middle of 10 runs], the viability, T/C (compound 0.03 µM) was 12.1% [middle of 10 runs] and the viability, T/C (compound 0.0949 µM) was 8% [middle of 10 runs]. The viability, T/C (compound 0.3 µM) was 3.52% [middle of 10 runs], the IC50 (compound alone, run of 11/07/2019) was 7.08 nM [middle of 5 runs] and the IC50 (compound alone, run of 12/16/2019) was 5.61 nM [middle of 5 runs].
